Experiment [1] concerns Sprague-Dawley 5/6Nx rats. Description: Direct blood pressure measurement in 5/6Nx rats after acute injection. It is filed as in vivo, rat. Particulars: 0.3 mg/kg i.v. The procedure: Direct blood pressure measurements—For direct blood pressure (BP) evaluation, Sprague-Dawley 5/6Nx rats were deeply anesthetized by an injection of 87 mg/kg ketamine and 13 mg/kg xylazine (intramuscular) mixture. Next, the rats were instrumented with a venous line and an arterial line. Specifically, using 26G i.v. cannula (BD Neoflon, Helsinborg, Sweden) we punctured one of the tail veins, and installed the cannula. Next, 1 ml of saline heparin (500 IU/ml) mixture was administered to avoid blood clotting. Concomitantly, we installed the arterial line, after a neck incision we bluntly exposed the right carotid and ligated it distally. Then the artery was clamped proximally and incised between the ligation and the clamp. A 100 PE tube was advanced into the artery and tightened in it by second ligature aimed to avoid blood leakage, and then we removed the arterial clamp. The external tube was attached to a Luer stopcock valve, through which saline could be injected, blood withdrawn and to be connected to a pressure transducer.
Upon connecting and stabilization, signals were continuously sampled at a sampling rate of 200 samples/sec by the MPVS-300 system, recorded.
Basal BP was recorded for 10 min, after which time 0.5 ml 5,6-diHETE lactone (0.3 mg/kg and 3 mg/kg) dissolved in saline+DMSO (9:1) were injected through the venous line, and BP was recorded for additional 10 min after injection. For control, two distinct, known BP lowering agents were used consecutively, labetalol (10 mg/kg) a known a and p adrenergic inhibitor, and amlodipine (1.5 mg/kg) a calcium channel blocker (each by 0.5 ml venous injection). BP was recorded for additional 10 min after each injection. Specifically, after lactone effect recording labetalol was administered and 10 min later the amlodipine. We terminated the experiment by venous administration of 1M KCl overdose, until the heart stopped.

The target of experiment [2] is T1, KCa3.1 (IK) calcium-activated potassium channel (human KCNN4 gene) expressed in CHO cells (Homo sapiens, UniProt O15554).
T1 construct: expressed in transfected cells
In words: Thallium flux assay, agonist effect on IK channel. It is filed as cell-based. Particulars: for Normalized % Activation: IK. On the procedure: (§1) Potassium channels genes were expressed in HEK293 or CHO cells (see Table 1). SspI or PvuI enzymes were used to linearize pcDNA3.1 plasmid (Thermo Fisher). The plasmid was stably transfected by Lonza Nucleofector. The transfection efficiency was >80% as validated by expression (western blot) and activation (patch clamp and membrane potential detection) of the channels.
(§2) Functional activity of voltage-gated potassium channels was conducted using a potassium dye (Thallium flux assay, Molecular Devices) using a Fluorescence Imaging Plate Reader (FLIPRTETRA™) instrument, according to the manufacturer's instructions. Cells were plated in 384-well black wall, flat clear bottom microtiter plates (BD Biocoat Poly-D Lysine Multiwell Cell Culture Plate) at 15,000 to 30,000 cells per well. Cells were incubated at 37° C. overnight or until cells reach sufficient density in the wells (near confluent monolayer) to use in fluorescence assays. A typical sequence is to record a baseline during the pre-incubation period (first addition of test article before stimulation), followed by activation in the stimulus buffer. For each addition, the first 60 seconds of data are acquired at the maximum rate (1 sample/second) and for the remaining 9-19 minutes (depending on the recording time of each addition); data are sampled every 5 seconds.
(§3) Accordingly, the objective of this study was to evaluate the agonist effects in vitro of the 5,6-diHETE lactone on two cloned human channels stably expressed in HEK-293 or CHO cells. The assay was performed with a thallium flux assay (FLIPR® Potassium Assay, Molecular Devices) according to the manufacturer's instructions. Briefly, cells were plated in 384-well black wall, flat clear bottom microtiter plates (BD Biocoat Poly-D-Lysine Multiwell Cell Culture Plate) at 15,000 to 30,000 cells per well. Cells were incubated at 37° C. overnight or until cells reach sufficient density in the wells (near confluent monolayer) to use in fluorescence assays. Dye-loading: Growth medium was removed and replaced with dye-loading buffer for 60 minutes at room temperature (protected from light). Agonist Effect: 5 repetitions of (5 μL) test, and vehicle or control solutions (assay buffer=0.3% DMSO) in K^+-free buffer with 5 mM Tl^+ was added to each well for ˜5 minutes. The test was 5,6-diHETE lactone (at eight concentrations: 0.05, 0.15, 0.3, 0.65, 1.25, 2.5, 5, and 10 μM, n=4). The agonist effects of the test article on the potassium channels was evaluated during this period by using a Fluorescence Imaging Plate Reader (FLIPRTETRA™) instrument.
(§4) To calculate the effect, the signal elicited in the presence of a known agonist, (1 μM A-23187 for SK3 and 10 μM NS309 for IK) with 5 mM thallium was set to 100% activation and the signal in the presence of the vehicle control (assay buffer+0.3% DMSO) was set to 0% activation. EC50 was calculated using GraphPad prism 5 software using nonlinear regression fit formula assuming a simple binding model.

The target of experiment [3] is T2, KCa2.3 (SK3) calcium-activated potassium channel (human KCNN3 gene) expressed in HEK293 cells (Homo sapiens, UniProt Q9UGI6).
T2 construct: expressed in transfected cells
Description: Thallium flux assay, agonist effect on SK3 channel. It is filed as cell-based. On the procedure: as §1, §2, §3, §4

The values below come from patent US12433864B2, “5,6-diHETE lactone for treatment of microvascular dysfunction” (MIGAL GALILEE RESEARCH INSTITUTE LTD., priority 2019, dated 2025).

For the molecule `CCC=CCC=CCC=CCC=CCC(O)C1CCCC(=O)O1` (racemic) [5,6-diHETE lactone, 5,6 dihydroxyeicosatetraenoic acid (5,6-diHETE) lactone], in experiment [1], the “percent reduction of SBP from baseline” value is listed as “about 20%”. Moreover, the “systolic blood pressure (SBP) upon injection” value in experiment [1] (baseline 188.0±5.5 mmHg, 3 rats) turned out to be 162.5±12.3 mmHg. In addition, the EC50 in experiment [2] (CHO cells, 100% = 10 μM NS309, read-out: EC50, IK channel activation) turned out to be 2.65 µM; in experiment [3] (HEK293 cells, 100% = 1 μM A-23187, read-out: EC50, SK3 channel activation) it was 9.99 µM. The “Normalized % Activation” value was −0.13% in experiment [2] (0.05 μM); −0.03% in experiment [2] (0.15 μM); 0.2% in experiment [2] (0.3 μM); 1.03% in experiment [2] (0.65 μM); 6.06% in experiment [2] (1.25 μM); 44.2% in experiment [2] (2.5 μM). Also, the “Normalized % Activation” value in experiment [2] (5 μM) is 90%; in experiment [2] (10 μM), 98.19%; in experiment [3] (SK3, 0.05 μM), 0.12%; in experiment [3] (SK3, 0.15 μM), 0.35%; in experiment [3] (SK3, 0.3 μM), 0.95%; in experiment [3] (SK3, 0.65 μM), 3.25%. The “Normalized % Activation” value was determined as 10.16% in experiment [3] (SK3, 1.25 μM); 25.36% in experiment [3] (SK3, 2.5 μM); 43.17% in experiment [3] (SK3, 5 μM); 73.65% in experiment [3] (SK3, 10 μM).

What is called EC50 is the concentration needed to bring the measured effect to its halfway point.
